Data from patent publication US20170348258A1, “3-Amino Benzamide Derivative Serving As B-Lactam Auxiliary Antibiotic, Preparation Method and Use Thereof” (THE HONG KONG POLYTECHNIC UNIVERSITY, priority 2014, published 2017).
Values after ≈ are worked out from the molar mass of the structure shown.

Assays:
[1] = tested on: MRSA strain USA300#2960; assay: Fractional Inhibitory Concentration Index (FICI) determination; type: cell-based, S. aureus
Description: (§1) The bacterial strains used in this study were clinically isolated MRSA strains USA300#757 and #2960 which were obtained from our laboratory. Determination of the Fractional Inhibitory Concentration Index (FICI) was adopted by the Müller-Hinton broth (MHB) dilution method as previously described. Twelve serial two-fold dilutions of PC190723, F332 and F361 were prepared in the 96-well microplate with concentration ranging from 512 to 0.25 μg/mL. A series of two-fold dilutions of ampicillin, cloxacillin and cefuroxime were also prepared following the same procedure. Lastly, the compounds and the β-lactams were mixed at a 1:1 ratio and subjected to two-fold dilution as described previously. Each microplate well contained 100 μL of MHB supplemented with compounds alone, β-lactams alone or the mixture of compounds and β-lactams. Overnight cultures of S. aureus in the Müller-Hinton broth was diluted to OD595 of 0.08-0.1 in saline and added in each of the microplate well. The plates were incubated at 37° C. for 20 h. All tests were performed in duplicate and the inhibition of bacterial growth was determined by visualization. The FICI of compounds and β-lactams were calculated as followed: FICI=(MIC of combination of compound and β-lactam/MIC of compound alone)+(MIC of combination of compound and β-lactam/MIC of β-lactam alone).

[2] = tested on: B. subtilis 168; assay: Antibacterial susceptibility test (MIC, microbroth dilution); type: cell-based; settings: 18 hours at 37° C., >90% inhibition of bacterial growth; read-out: MIC, BS 168
Description: (§2) The bacterial strains used in microbial susceptibility test were E. coli, S. aureus 29213 and B. subtilis 168. E. coli and S. aureus 29213 were obtained from the laboratory of the Hong Kong Polytechnic University. B. subtilis 168 was purchased from American Type Culture Collection (USA). The mammalian cell lines L929 (mouse peritoneal fibroblast), LCC6 (a wild type breast cancer cell line), LCC6MDR (P-gp over-expressed breast cancer cell line) were stocks in our department. Nutrient Agar, tryptone and yeast extract were purchased from Oxoid Limited (Nepean, Ontario, Canada). Luria-Bertani (LB) medium was prepared from 2 g tryptone, 1 g yeast extract, and 2 g sodium chloride in 200 ml deionized water and sterilized. Müller-Hinton broth (MHB), cation-adjusted Müller-Hinton broth (MHB) and trypticase soy broth (TSB) for microbial susceptibility test were purchased from Becton, Dickinson and Company (New Jersey, USA). A microplate reader (Bio-Rad Laboratories Model 680) is used to measure bacterial growth and cytotoxicity. An Olympus FSX100® Bio Imaging Navigator Microscope was used to observe the morphology of B. subtilis cell.
(§3) The minimum inhibitory concentration (MIC) of each compound was determined using microbroth dilution method according to the National Committee for Clinical Laboratory Standards (CLSI) guidelines. All Compounds were dissolved in DMSO and diluted in a serial two-fold manner. A single colony of bacterial strain on a TSB agar plate was inoculated in 5 mL MHB or CA-MHB. The bacterial cells were incubated at 37° C. until the optimal density (OD600) of the growing cells reached 1.0. The cells were then diluted to a final concentration of approximately 5×10^5 CFU/mL in a serial two-fold manner in a 96-well microtiter plate (Iwaki, Japan). Compound 3 and PC190723 were used as positive controls. […] Table 1 below summarizes the MIC of all synthesized compounds.

[3] = tested on: S. aureus 29213; assay: as above; type: cell-based; settings: 18 hours at 37° C., >90% inhibition of bacterial growth
Description: as §2, §3

[4] = tested on: E. coli; assay: as above; type: cell-based; settings: 18 hours at 37° C., >90% inhibition of bacterial growth
Description: as §2, §3

[5] = tested on: MRSA strain USA300#757; assay: Fractional Inhibitory Concentration Index (FICI) determination; type: cell-based, S. aureus
Description: as §1, with “A series of two-fold dilutions of ampicillin, cloxacillin and cefuroxime were also prepared following the same procedure.” left out

## NC(=O)c1c(F)ccc(OCc2nc3cc(Cl)cnc3s2)c1F [PC190723, reference compound]
[1]
  FICI with Cefotaxime: 1.03
  FICI with Meropenem: 0.63
[2]
  MIC: 0.5 µM (≈ 0.178 µg/mL)
[3]
  MIC: 0.5 µM (≈ 0.178 µg/mL)
[4]
  MIC: >2 µM
[5]
  FICI with Cefotaxime: 1.02
  FICI with Meropenem: 0.31
